Laboratory results published in US5545667A, “Methods for treating neoplasms with betaines” (The Clorox Company, priority 1994, dated 1996).
Counter-ions that a name gives are not always drawn. Like-named read-outs stand apart in the source and are kept apart here.

What was measured:
K-562 cells = experiment: Cell growth inhibition assay, K-562; type: cell-based; conditions: Homo sapiens
Method: (§1) Established cell lines are the system of choice for the prescreening of unknown compounds for antineoplastic activity. The tumor cell line screen works on the following principle. Cancer cells, if provided with enough nutrients, will grow unchecked in vitro, allowing researchers to grow many types of cancer cells outside the body. To perform an assay, standard amounts of the various cancer cells are placed in individual wells of a microtiter plate, and incubated with the potential antineoplastic compound of interest, for a sufficient period of time to allow for at least a 6-fold control growth, generally 1 to 5 days depending on cell origin. At the end of the incubation period, the cell lines are stained and assayed by a variety of means including, for example, proteins stains or a colorimeter for normal growth, growth inhibition or cytotoxicity. These assays measure a compound's ability to inhibit cell growth and a positive response of the compounds in these assays would be indicative of the therapeutic potential of these compounds. See, for example, the protocols and data presented in Laskin et al., (1979) Cancer Res 39:383-390 for 5-fluorouracil in mouse and human cells in culture.
(§2) A total of ten cell lines were used to evaluate the growth inhibitory potency of the various surfactants. In these studies, human, rat, mouse and bovine cells were used. A spectrum of different tumor cell types were used including those derived from keratinocytes (PAM 212), leukemias (HL-60, U-937 and K-562), an epitheloid carcinoma (HeLa) and melanoma (B-16). The B16 melanoma was used since this is a common cell type used to evaluate antimetastatic activity of test compounds. The effect of the surfactants on three fibroblast cell lines (C3H 10T1/2, NIH 3T3 and R6) were also evaluated for comparison to the tumor cell lines. The activity of the surfactants was also evaluated using pulmonary aortic endothelial cells for effectiveness as antiangiogenic agents.
(§3) PAM 212 cells are a mouse keratinocyte-derived tumor cell line. U-937 cells are a human histiocytic tumor cell line. HeLa cells are an epitheloid tumor cell line. Three murine fibroblast cells lines tested included the mouse fibroblast cell line, C3H 10T1/2, the rat fibroblast cell line R6, and the NIH 3T3 mouse fibroblast cell line. The human leukemia cell line HL-60 and the mouse melanoma B-16 cell were also tested. K-562 cells were from the American Type Culture Collection. All cells were grown in Dulbecco's modified Eagle's medium in a 37° C. incubator in an atmosphere of 5% CO2.
(§4) For growth inhibition assays, cells were seeded at low density (2.5×10^4 cells in 0.5 ml of culture medium) into 24-well tissue culture plates (Falcon Labware, Lincoln Park, N.J.). After 24 hours at 37° C., increasing concentrations (1 to 100 uM) of the surfactants were added to the cells in the culture plate. Control cultures were incubated in the absence of any surfactant. The cells were then incubated for 3-4 days to allow for growth. Cells from individual wells in the culture plate were then removed and duplicate samples taken for counting using a Coulter counter. To remove adherent cells the plates were treated with 0.25% trypsin/0.2% EDTA (GIBCO, Grand Island, N.Y.).

HeLa cells = experiment: Cell growth inhibition assay, HeLa; type: cell-based; conditions: read-out: IC50 (uM conc. inhibiting growth of the cells by 50%)
Method: as §1, §2, §3, §4

U-937 cells = experiment: Cell growth inhibition assay, U-937; type: cell-based; conditions: Homo sapiens
Method: as §1, §2, §3, §4

[1] = Critical micelle concentration (cmc); type: physicochemical
Description: "Critical micelle concentration" or "cmc" refers to the point at which micelle formation begins.

R6 cells = experiment: Cell growth inhibition assay, R6; type: cell-based, rat; conditions: Fibroblast, read-out: IC50 (uM conc. inhibiting growth of the cells by 50%)
Method: as §1, §2, §3, §4

CPA-5 cells = experiment: Cell growth inhibition assay, CPA-5 endothelial cells; type: cell-based, bovine; conditions: Bos taurus, read-out: IC50 (uM conc. inhibiting growth of the cells by 50%)
Description: as §2, §3, §4
The compounds were tested as inhibitors of growth in the bovine aortic endothelial cell line CPA-5 as taught in Example 2 in order to evaluate the possibility that they may be anti-angiogenesis agents. A hallmark of angiogenesis is the outgrowth of endothelial cells which are required in the formation of new blood vessels. This process is a critical factor in the vascularization of tumors. Inhibition of neovascularization limits the growth of tumors and would be an effective means of treating cancer. FIG. 3 illustrates that three of the compounds, 8-3S, 12-5B and 12-1B, had no activity against the CPA-5 cell line in the concentration range tested (IC50 =>100 uM), while only relatively high concentrations of 12-3S (IC50 =70 uM) were effective in inhibiting the growth of CPA-5 cells. As indicated above, with several exceptions, these compounds were also not very effective in inhibiting the growth of each of the other cell types.

PAM 212 cells = experiment: Cell growth inhibition assay (surfactants, 3-4 days, Coulter counter), PAM 212; type: cell-based, mouse
Method: as §1, §2, §3, §4

B-16 cells = experiment: Cell growth inhibition assay, B-16 melanoma; type: cell-based, mouse
Method: as §1, §2, §3, §4

HL-60 cells = experiment: Cell growth inhibition assay, HL-60; type: cell-based, human
Method: as §1, §2, §3, §4

NIH 3T3 cells = experiment: Cell growth inhibition assay, NIH 3T3; type: cell-based, mouse
Method: as §1, §2, §3, §4

C3H 10T1/2 cells = experiment: Cell growth inhibition assay, C3H 10T1/2; type: cell-based, mouse
Method: as §1, §2, §3, §4

battery of cell lines = conditions: 1988 report; cited from earlier work
ten cell lines = experiment: Cell growth inhibition assays, panel of cell lines; type: cell-based, human, rat, mouse and bovine
Description: as §2, §3, §4

liver = conditions: rats fed ethionine; cited from earlier work
[2] = K562, K-562 leukemia cells, 3-4 days, read-out: IC50 (uM conc. inhibiting growth of the cells by 50%)
[3] = Homo sapiens, HeLa, HeLa cells, 3-4 days
[4] = U-937, U-937 human histiocytic tumor cells, 3-4 days, read-out: IC50 (uM conc. inhibiting growth of the cells by 50%)
[5] = CPA-5 bovine aortic endothelial cells, 3-4 days
[6] = PAM212, PAM 212 mouse keratinocyte-derived tumor cells, 3-4 days, read-out: IC50 (uM conc. inhibiting growth of the cells by 50%)
[7] = B16, B-16 mouse melanoma cells, 3-4 days, read-out: IC50 (uM conc. inhibiting growth of the cells by 50%)
[8] = HL-60 human leukemia cells, 3-4 days, read-out: IC50 (uM conc. inhibiting growth of the cells by 50%)
[9] = NIH3T3, NIH 3T3 mouse fibroblasts, 3-4 days, read-out: IC50 (uM conc. inhibiting growth of the cells by 50%)
[10] = C3H 10T1/2 mouse fibroblasts, 3-4 days, read-out: IC50 (uM conc. inhibiting growth of the cells by 50%)
[11] = K562, read-out: IC50 (uM conc. inhibiting growth of the cells by 50%)
[12] = U-937, read-out: IC50 (uM conc. inhibiting growth of the cells by 50%)
[13] = Mus musculus, B16, read-out: IC50 (uM conc. inhibiting growth of the cells by 50%)
[14] = Homo sapiens, HL-60, read-out: IC50 (uM conc. inhibiting growth of the cells by 50%)
[15] = Mus musculus, NIH3T3, read-out: IC50 (uM conc. inhibiting growth of the cells by 50%)
[16] = Mus musculus, C3H 10T1/2, read-out: IC50 (uM conc. inhibiting growth of the cells by 50%)

Structure (SMILES)	IC50 (K-562 cells; [2]) [µM]	IC50 (HeLa cells; [3]) [µM]	IC50 (U-937 cells; [4]) [µM]	cmc [1]	IC50 (R6 cells; R6 rat fibroblasts, 3-4 days) [µM]	IC50 (CPA-5 cells; [5]) [µM]	IC50 (PAM 212 cells; [6]) [µM]	IC50 (B-16 cells; [7]) [µM]	IC50 (HL-60 cells; [8]) [µM]	IC50 (NIH 3T3 cells; [9]) [µM]	IC50 (C3H 10T1/2 cells; [10]) [µM]	further results
CCCCCCCCCCCC[N+](C)(C)CCCCCC(=O)[O-] [12-5B, N-(5-carboxypentyl)-N,N-dimethyl-1-dodecanaminium hydroxide inner salt]	> 100	75	> 100	5,100 uM	78	> 100	60	> 100	11	> 100	> 100	–
CCCCCCCCCCCC[N+](C)(C)CCCS(=O)(=O)[O-] [12-3S, N-dodecyl-N,N-dimethyl-3-ammonio-1-propanesulfonate]	> 100	68	> 100	2,200 uM	45	70	3	> 100	9.3	> 100	6.5	IC50 (HeLa cells; HeLa cells, 3-4 days): 58 µM; inhibition and toxicity at the concentrations tested (battery of cell lines): noninhibitory and nontoxic
CCCCCCCCCCCCCCCC[N+](C)(C)CC(=O)[O-] [16-1B, N-(carboxymethyl)-N,N-dimethyl-1-hexadecanaminium hydroxide inner salt]	–	–	–	14 µM	–	–	–	–	–	–	–	IC50 (K-562 cells; [11]): 32 µM; IC50 (HeLa cells; Homo sapiens, HeLa): 16 µM; activity against all of the cell lines tested (ten cell lines; growth inhibition): effective against all of the cell lines; IC50 (U-937 cells; [12]): 23 µM; IC50 (R6 cells; Rattus norvegicus): 45 µM; IC50 (CPA-5 cells): 30 µM; IC50 (PAM 212 cells; Mus musculus, PAM212, read-out: IC50 (uM conc. inhibiting growth of the cells by 50%)): 50 µM; IC50 (B-16 cells; [13]): 52 µM; IC50 (HL-60 cells; [14]): 8 µM; IC50 (NIH 3T3 cells; [15]): 60 µM; IC50 (C3H 10T1/2 cells; [16]): 54 µM
CCCCCCCCCCCC[N+](C)(C)CC(=O)[O-] [12-1B, N-(carboxymethyl)-N,N-dimethyl-1-dodecanaminium hydroxide inner salt]	–	–	–	2,400 uM	–	–	–	–	–	–	–	IC50 (K-562 cells; [11]): 19 µM; IC50 (HeLa cells; Homo sapiens, HeLa): 39 µM; IC50 (U-937 cells; [12]): > 100 µM; IC50 (R6 cells; Rattus norvegicus): > 100 µM; inhibition and toxicity at the concentrations tested (battery of cell lines): inhibitory and toxic; IC50 (CPA-5 cells): > 100 µM; IC50 (B-16 cells; [13]): 90 µM; IC50 (HL-60 cells; [14]): 37 µM; IC50 (NIH 3T3 cells; [15]): > 100 µM; IC50 (C3H 10T1/2 cells; [16]): > 100 µM
CCCCCCCCCCCCCCCC[N+](C)(C)CCCS(=O)(=O)[O-] [16-3S, N-hexadecyl-N,N-dimethyl-3-ammonio-1-propanesulfonate]	15	2.2	6	28 µM	14	17	7.5	54	1.6	40	3.3	–
CCCCCCCC[N+](C)(C)CCCS(=O)(=O)[O-] [8-3S, N-octyl-N, N-dimethyl-3-ammonio-1-propanesulfonate]	> 100	> 100	> 100	200,000 uM	78	> 100	> 100	> 100	> 100	> 100	> 100	IC50 (ten cell lines; all / all other cell lines tested, read-out: IC50 over the cell lines tested (range or bound)): > 100 µM
C[N+](C)(C)CC(=O)O [betaine]	–	–	–	–	–	–	–	–	–	–	–	prevention of chronic morphological changes in the liver, including cancer formation (liver): relatively effective in preventing chronic morphological changes in the liver, including cancer formation
